From article PMC3905752 (Nature chemical biology, 2013)

Columns and labels:
Format in all cases: biochemical
[1] = target: ubiquitin~Cdc34A thioester (Homo sapiens, UniProt P0CG48+P49427, K48R); assay: Spontaneous hydrolysis of the ubiquitin~Cdc34A^FL thioester; details: 100 μM CC0651
Cdc34A^Glu133Arg [2] = target: Cdc34A^Glu133Arg (Homo sapiens, UniProt P49427, E133R); assay: Sic1-SCF^Cdc4 ubiquitination assay with Cdc34A^Glu133Arg mutant; details: Cdc34A^Glu133Arg mutant with Ub^Arg42Glu mutant
Cdc34A^Glu133Arg [3] = target: T1, Cdc34A^Glu133Arg (Homo sapiens, UniProt P49427, E133R); assay: as above; details: Cdc34A^Glu133Arg mutant, wild type ubiquitin
T1 sequence (P49427 1-236 E133R): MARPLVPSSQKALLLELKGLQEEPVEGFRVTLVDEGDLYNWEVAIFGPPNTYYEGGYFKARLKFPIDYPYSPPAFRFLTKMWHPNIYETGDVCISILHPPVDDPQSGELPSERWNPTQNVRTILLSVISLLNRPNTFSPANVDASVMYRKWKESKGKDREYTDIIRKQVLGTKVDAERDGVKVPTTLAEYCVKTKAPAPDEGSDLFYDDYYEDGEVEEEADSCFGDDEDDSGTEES

- Effect on hydrolysis of the ubiquitin~Cdc34A thioester to water [1]: inhibited
- Sensitivity of Sic1 ubiquitination to CC0651 (Cdc34A^Glu133Arg [2]): restored
- Sensitivity of Sic1 ubiquitination to CC0651 (Cdc34A^Glu133Arg [3]): insensitivity
SMILES: COCC(=O)N[C@@H](Cc1ccc(-c2cc(Cl)cc(Cl)c2)cc1)[C@H](O)[C@@H](O)C(=O)O [CC0651, (2R,3S,4S)-5-(3′,5′-Dichloro-[1,1′-biphenyl]-4-yl)-2,3-dihydroxy-4-(2 methoxyacetamido)pentanoic acid]
